Values of other authors, collected in patent US20230345942A1, “CORONA VIRUS KILLING AGENT” (SANKEI CO., LTD., priority 2020, published 2023).

Tests used:
[1] = test system: Influenza; set-up: key: ◯ Effective; ∇ Low efficacy; ⊚ Effective even in the presence of organic matter
[2] = test system: bacteria, fungi
[3] = test system: Novel coronavirus; set-up: key: ◯ Effective; ∇ Low efficacy; ⊚ Effective even in the presence of organic matter
[4] = as qualified in the cell (undiluted solution / at usage concentration)
[5] = test system: Norovirus (alternative); set-up: key: ◯ Effective; ∇ Low efficacy; ⊚ Effective even in the presence of organic matter
[6] = test system: enveloped viruses

CCO [Disinfecting ethanol, Ethanol]
Antiviral activity: Influenza [1]: ◯ | Antibacterial/fungal activity [2]: Broad range | Antiviral activity: Novel coronavirus [3]: ◯ | Safety [4]: Flammable | Antiviral activity: Norovirus (alternative) [5]: ∇

OCl [Sodium hypochlorite]
Antiviral activity: Influenza [1]: ◯ | Antibacterial/fungal activity [2]: Broad range | Antiviral activity: Novel coronavirus [3]: ◯ | Safety [4]: hazardous | Antiviral activity: Norovirus (alternative) [5]: ◯

CCO [alcohol]
Concentration required for an inactivation effect on enveloped viruses [6]: ≥ 70 % (v/v)
